Here are results for eight molecules from PMC11892870 (PLOS One, 2025).

One series has as its target AChE (Homo sapiens, UniProt P22303). The experiment in a line: biochemical.
In another series the target is BChE (Homo sapiens, UniProt P06276). The experiment in a line: biochemical. The conditions noted are these: mean ± SD, n = 3; read-out: BChE inhibition IC50.
The target in another series is T1, Aβ1-42 (Homo sapiens, UniProt P05067).
T1 construct: Aβ1-42 was firstly dissolved in HFIP
The experiment in a line: Inhibition of Aβ1-42 aggregation (fibril formation), ThT fluorescence. The series is classed as biochemical. The text has this: (§1) Then, the solvent was dried in hood using nitrogen, and reconstituted to working solution with 0.5 M phosphate buffer (pH 7.4).

Another series addresses T2, Aβ1-42 fibrils (Homo sapiens, UniProt P05067).
T2 construct: Aβ1-42 was firstly dissolved in HFIP
The experiment in a line: biochemical. To be noted: read-out: Aβ destabilization IC50.
From the text: as §1

The nature of another series: DPPH radical scavenging. To be noted: read-out: Antioxidant DPPH IC50. As to the method: (§2) The mixtures were kept in the dark for 30 minutes and then the absorbance was measured at 550 nm. In case of ABTS assay, ABTS radical cation (ABTS • + ) was prepared from a mixture of the ABTS stock solution (7 mM) and potassium persulfate (2.45 mM) in water. The mixture was then kept in the dark for 12-16 hours before use. Then, the ABTS • + solution was diluted in ethanol until the absorbance reached 0.70 ± 0.02 at […].
(§3) Trolox was used as a positive control in both assays, while a mixture of ethanol and DPPH or ABTS • + solution served as the negative control. The percentage inhibition of DPPH and ABTS radicals was calculated using the following equation:
(§4) DPPHandABTSinhibition%=A0−A1/A0×100
(§5) A0 is the absorbance of the control and A1 is the absorbance of the sample.
(In general: The DPPH test is a chemical assay of radical scavenging.)

A short description of a further series: ABTS radical scavenging. To be noted: read-out: Antioxidant ABTS IC50. As to the method:
as §2, §3, §4, §5

A short description of series [1]: Cytotoxicity in differentiated SH-SY5Y cells, MTT. The series is classed as cell-based. The conditions noted are these: human. The procedure: (§6) Neuroblastoma cells (SH-SY5Y) were maintained in humidified atmosphere at 37 °C with 5%CO2 in DMEM/F12 supplement with 10%FBS. Afterward, cells were treated for 6 days and replaced every 3 days with 1%FBS supplementation and 10 μM of retinoic acid. Cells were seeded (100,000 cells per well) in 96-well microplates and cultured for 48 hours before treatment. […] Cell viability was assessed using MTT assay. Absorbance at 570 nm was measured for both treated and untreated samples, with viability expressed as a percentage relative to the control.

For the next series, the system named is SH-SY5Y cells. The experiment in a line: Cytotoxicity in differentiated SH-SY5Y cells, MTT. It counts as cell-based. To be noted: 100 µM, SH-SY5Y, MTT, average of 5. The procedure:
as §6

In series [2] the test system is scopolamine-induced amnesic mice. The experiment in a line: Modified Y-maze test, scopolamine-induced amnesia. It counts as in vivo.
Series [3] has the same test system. The experiment in a line: Novel object recognition test, scopolamine-induced amnesia. The series is classed as in vivo.
Series [4] shares this test system. The series is described as follows: Morris water maze test, scopolamine-induced amnesia. The series is classed as in vivo.
For another series, the system named is male ICR mice. The experiment in a line: Locomotor activity and spontaneous alternation in Y-maze. The conditions noted are these: donepezil 3 mg/kg p.o., average of 7 mice. The series is classed as in vivo. The procedure: Scopolamine was dissolved in NSS. Donepezil and crude extract were dissolved in corn oil. Animal doses were calculated according to mice body weight. […].
Sixty male ICR mice in age 6 weeks (34-44 g) were supplied from Northeast Laboratory Animal Center, KKU. Before conducting the experiments, they were acclimatized for a week with a 12h light-dark cycle and had free access to their diet and water. Their body weight was recorded every day. […] Investigators could not be blinded to the mouse groups due to the difference in code colors. However, the investigators who assessed the mouse’s behavior were blinded to the mouse code for providing unbiased data. The parameters related to behavioral changes were assessed including the number of arm entries, the exploration time spent, and the time spent in a preference quadrant.
Locomotor activity was investigated in a black polyvinyl chamber Y maze. The size of the chamber is 40 cm long, 3 cm wide at the bottom and 10 cm wide at the top, and 12 cm high in each arm. Mice were first allowed to acclimate the chamber and freely moved in Y maze for 8 minutes. After acclimatization, the locomotor activity was measured for 1 hour following the treatment administration. The number of arm entries was recorded from the middle of the maze.

The mark [5] stands for this setting: mean ± SD, n = 3, read-out: AChE inhibition IC50.
Where [6] appears, read: read-out: Inhibition of Aβ formation IC50.
Where [7] appears, read: differentiated SH-SY5Y neuroblastoma cells, 0.1 µM, SH-SY5Y, MTT, average of 5, read-out: %Cell viability (cytotoxicity).
Where [8] appears, read: differentiated SH-SY5Y neuroblastoma cells, 1 µM, SH-SY5Y, MTT, average of 5, read-out: %Cell viability (cytotoxicity).
[9] abbreviates: differentiated SH-SY5Y neuroblastoma cells, 10 µM, SH-SY5Y, MTT, average of 5, read-out: %Cell viability (cytotoxicity).
The mark [10] stands for this setting: differentiated SH-SY5Y neuroblastoma cells, 100 µM, SH-SY5Y, MTT, average of 5, read-out: %Cell viability (cytotoxicity).
[11] abbreviates: long-term memory (24 h delay), scopolamine 1 mg/kg i.p. alone.
[12] abbreviates: short-term memory, scopolamine 1 mg/kg i.p. alone.
Setting [13] is: 0.1 µM, SH-SY5Y, MTT, average of 5, read-out: %Cell viability (cytotoxicity).
Setting [14] is: 1 µM, SH-SY5Y, MTT, average of 5, read-out: %Cell viability (cytotoxicity).
Setting [15] is: 10 µM, SH-SY5Y, MTT, average of 5, read-out: %Cell viability (cytotoxicity).
[16] abbreviates: 100 µM, SH-SY5Y, MTT, average of 5, read-out: %Cell viability (cytotoxicity).
Where [17] appears, read: long-term memory (24 h delay), donepezil 3 mg/kg p.o. + scopolamine 1 mg/kg i.p.
Setting [18] is: short-term memory, donepezil 3 mg/kg p.o. + scopolamine 1 mg/kg i.p.

Where two headings read alike, the source gives them in different places. A value given as a limit tells only on which side of the number the result lay.

T2 sequence (P05067 672-713 limits assumed): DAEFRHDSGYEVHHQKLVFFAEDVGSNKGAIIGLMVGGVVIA
T1 sequence (P05067 672-713 limits assumed): as above
Sequence of BChE (P06276 29-602, species assumed): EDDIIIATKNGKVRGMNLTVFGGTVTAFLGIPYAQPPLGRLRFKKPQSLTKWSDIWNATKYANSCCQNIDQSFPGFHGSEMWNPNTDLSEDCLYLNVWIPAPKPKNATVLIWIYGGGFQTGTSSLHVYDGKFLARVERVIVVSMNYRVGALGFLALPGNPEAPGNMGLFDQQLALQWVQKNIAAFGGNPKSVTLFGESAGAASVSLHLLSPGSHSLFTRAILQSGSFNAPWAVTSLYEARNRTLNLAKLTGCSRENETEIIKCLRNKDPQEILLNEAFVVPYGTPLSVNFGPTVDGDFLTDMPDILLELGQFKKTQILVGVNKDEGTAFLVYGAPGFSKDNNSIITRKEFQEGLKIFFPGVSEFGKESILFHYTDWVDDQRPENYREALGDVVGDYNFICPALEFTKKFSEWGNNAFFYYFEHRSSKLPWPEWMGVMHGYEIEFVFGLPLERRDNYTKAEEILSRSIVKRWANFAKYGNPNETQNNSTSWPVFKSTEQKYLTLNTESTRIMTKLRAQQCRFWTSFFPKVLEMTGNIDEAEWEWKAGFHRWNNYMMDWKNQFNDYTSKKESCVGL
Sequence of AChE (P22303 32-614): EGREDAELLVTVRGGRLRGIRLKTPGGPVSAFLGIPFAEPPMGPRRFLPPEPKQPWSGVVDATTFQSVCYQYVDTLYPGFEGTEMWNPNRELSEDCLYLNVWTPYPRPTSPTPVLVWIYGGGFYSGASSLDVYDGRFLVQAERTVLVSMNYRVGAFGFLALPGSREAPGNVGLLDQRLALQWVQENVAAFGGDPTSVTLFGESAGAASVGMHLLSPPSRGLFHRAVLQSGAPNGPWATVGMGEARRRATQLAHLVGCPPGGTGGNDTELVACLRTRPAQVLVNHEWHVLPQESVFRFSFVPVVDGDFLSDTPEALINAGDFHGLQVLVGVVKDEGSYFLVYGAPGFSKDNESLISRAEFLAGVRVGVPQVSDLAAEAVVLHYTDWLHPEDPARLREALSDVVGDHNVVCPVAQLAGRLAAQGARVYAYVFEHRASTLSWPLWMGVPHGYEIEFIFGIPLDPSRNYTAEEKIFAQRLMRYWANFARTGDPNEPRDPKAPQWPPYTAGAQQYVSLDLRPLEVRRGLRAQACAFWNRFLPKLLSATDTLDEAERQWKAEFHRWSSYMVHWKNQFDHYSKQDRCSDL

A word on the IC50: it is the concentration that inhibits the measured activity by half. As usually defined, the viability is a read-out of living cells in per cent, often relative to untreated cells. In the case of `COc1cc(OC)c2c(=O)c(OC)c(-c3ccccc3)oc2c1` [F2, 3,5,7-trimethoxyflavone], the IC50 is 237.1 ± 2.28 µM on AChE (setting [5]); 233 ± 6.89 µM on BChE; 87.1 ± 4.51 µM at Aβ1-42 (setting [6]); 83.9 ± 1.67 µM at Aβ1-42 fibrils; more than 100 µM in “DPPH radical scavenging”; more than 100 µM in the series “ABTS radical scavenging”. For the same molecule, the viability at 0.1 µM in [1] (setting [7]) was 103%. Further, the viability at 1 µM in series [1] (setting [8]) was found to be 102%. Further, the viability at 10 µM in series [1] (setting [9]) amounted to 102%. The viability at 100 µM in [1] (setting [10]) stood at 94%. Besides, the “%Cell viability (cytotoxicity)” value in the series on SH-SY5Y cells was “toxic”.
With `CN1[C@@H]2C[C@@H](OC(=O)[C@H](CO)c3ccccc3)C[C@H]1[C@@H]1O[C@@H]12` [Scopolamine], the “%unfamiliar arm exploration” value in [2] (long-term memory (24 hours), scopolamine 1 mg/kg i.p. alone) came out at 33.37%; in series [2] (short-term memory (30 min), scopolamine 1 mg/kg i.p. alone), 31.09%. Also, the “Time spent exploring the familiar object” value in series [3] (setting [11]) was determined as 43.83 s; in [3] (setting [12]), 63.40 s. Further, the “Time spent exploring the novel object” value in [3] (setting [11]) came to 27.21 s; in series [3] (setting [12]), 46.80 s. Moreover, the “Time to find the platform, Escape latency” value in [4] (acquisition phase Day 1, scopolamine 1 mg/kg i.p. alone) turned out to be 58.43 s; in series [4] (acquisition phase Day 2, scopolamine 1 mg/kg i.p. alone), 54.46 s; in series [4] (acquisition phase Day 3, scopolamine 1 mg/kg i.p. alone), 46.21 s; in series [4] (acquisition phase Day 4, scopolamine 1 mg/kg i.p. alone), 39.64 s; in series [4] (acquisition phase Day 5, scopolamine 1 mg/kg i.p. alone) it was 35.04 s.
In the case of `COc1cc(O)c2c(=O)c(OC)c(-c3ccccc3)oc2c1` [F4, 5-hydroxy-3,7-dimethoxyflavone], the IC50 on AChE (setting [5]) is 217.6 ± 1.84 µM; at BChE it was 33.5 ± 2.97 µM; on Aβ1-42 (setting [6]), 97.1 ± 2.38 µM; at Aβ1-42 fibrils, 63.9 ± 1.83 µM; in the series “DPPH radical scavenging”, more than 100 µM; in the series “ABTS radical scavenging”, more than 100 µM. The viability at 0.1 µM in series [1] (setting [7]) amounted to 102%. Besides, the viability at 1 µM in [1] (setting [8]) stood at 103%. For the same molecule, in [1] (setting [9]), the viability at 10 µM is 103%. For the same molecule, the viability at 100 µM in series [1] (setting [10]) is 80.5%. In addition, the “%Cell viability (cytotoxicity)” value in the series with SH-SY5Y cells is on record as “toxic”.
Take `COc1ccc(-c2oc3cc(OC)cc(OC)c3c(=O)c2OC)cc1` [F5, 3,5,7,4′-tetramethoxyflavone]: the IC50 at AChE was 209.1 ± 0.82 µM; on BChE, 164 ± 5.13 µM; on Aβ1-42, 134 ± 5.08 µM; on Aβ1-42 fibrils, 51.3 ± 3.13 µM; in “DPPH radical scavenging”, more than 100 µM; in “ABTS radical scavenging”, more than 100 µM. Besides, the viability at 0.1 µM in series [1] (setting [13]) amounted to 99.9%. The viability at 1 µM in series [1] (setting [14]) was 99.8%. In addition, the viability at 10 µM in series [1] (setting [15]) worked out at 98.8%. Also, the viability at 100 µM in [1] (setting [16]) came to 102%.
`COc1cc(OC)c2c(=O)cc(-c3ccccc3)oc2c1` [F1, 5,7-dimethoxyflavone]: the IC50 against AChE was 181 ± 2.66 µM; on BChE, 92.19 ± 0.69 µM; on Aβ1-42 (setting [6]), 105 ± 1.34 µM; on Aβ1-42 fibrils it was 75.9 ± 4.96 µM; in “DPPH radical scavenging”, more than 100 µM; in “ABTS radical scavenging”, more than 100 µM. In addition, the viability at 0.1 µM in series [1] is 104%. Further, the viability at 1 µM in series [1] came out at 104%. Also, the viability at 10 µM in [1] is 103%. Also, the viability at 100 µM in [1] turned out to be 103%.
Turning to `Cc1c(C)c2c(c(C)c1O)CCC(C)(C(=O)O)O2` (stereo not drawn) [Trolox, reference compound], the 50% inhibitory concentration (IC50) in the series “DPPH radical scavenging” came to 24.6 ± 0.39 µM; in the series “ABTS radical scavenging” it was 81.4 ± 4.67 µM.
Regarding `COc1ccc(-c2cc(=O)c3c(OC)cc(OC)cc3o2)cc1` [F3, 5,7,4′-trimethoxyflavone], the IC50 against AChE is 106 ± 1.14 µM; on BChE, 152 ± 6.14 µM; at Aβ1-42 (setting [6]), 91.4 ± 4.67 µM; at Aβ1-42 fibrils, 39.5 ± 0.61 µM; in “DPPH radical scavenging”, more than 100 µM; in the series “ABTS radical scavenging”, more than 100 µM. In addition, the viability at 0.1 µM in series [1] (setting [13]) came to 101%. Besides, in [1] (setting [14]), the viability at 1 µM turned out to be 102%. In series [1] (setting [15]), the viability at 10 µM was determined as 102%. The viability at 100 µM in series [1] (setting [16]) amounted to 95.5%.
Regarding `COc1cc2c(cc1OC)C(=O)C(CC1CCN(Cc3ccccc3)CC1)C2` (stereo not drawn) [Donepezil], the “Locomotor activity, total number of arm entries” value in the series with male ICR mice is reported as 23.57. Also, the “%unfamiliar arm exploration” value in series [2] (long-term memory (24 hours), donepezil 3 mg/kg p.o. + scopolamine 1 mg/kg i.p.) came out at 39.94%; in [2] (short-term memory (30 min), donepezil 3 mg/kg p.o. + scopolamine 1 mg/kg i.p.) it was 40.79%. Also, the “Time spent exploring the familiar object” value in series [3] (setting [17]) came to 32.11 s; in series [3] (setting [18]), 52.86 s. In addition, the “Time spent exploring the novel object” value in [3] (setting [17]) was 56.84 s; in series [3] (setting [18]), 64.31 s. Also, the “Time to find the platform, Escape latency” value in [4] (acquisition phase Day 1, donepezil 3 mg/kg p.o. + scopolamine 1 mg/kg i.p.) was found to be 59.86 s; in series [4] (acquisition phase Day 2, donepezil 3 mg/kg p.o. + scopolamine 1 mg/kg i.p.), 49.00 s; in series [4] (acquisition phase Day 3, donepezil 3 mg/kg p.o. + scopolamine 1 mg/kg i.p.), 37.04 s; in series [4] (acquisition phase Day 4, donepezil 3 mg/kg p.o. + scopolamine 1 mg/kg i.p.), 27.71 s; in series [4] (acquisition phase Day 5, donepezil 3 mg/kg p.o. + scopolamine 1 mg/kg i.p.) it was 25.57 s. Besides, the “Time spent in the target quadrant” value in [4] (probe test day 6, donepezil 3 mg/kg p.o. + scopolamine 1 mg/kg i.p.) came to 18.39 s.
